The values below come from publication PMC6599797, “Functional characterization of three flavonoid glycosyltransferases from Andrographis paniculata” (Royal Society Open Science, 2019).

Holding throughout (assay type): biochemical
For assay [1], the target named is T1, ApUFGT2 (Andrographis paniculata, UniProt A0A8E3S624).
T1 construct: gene UGT8
T1 sequence (A0A8E3S624 1-479): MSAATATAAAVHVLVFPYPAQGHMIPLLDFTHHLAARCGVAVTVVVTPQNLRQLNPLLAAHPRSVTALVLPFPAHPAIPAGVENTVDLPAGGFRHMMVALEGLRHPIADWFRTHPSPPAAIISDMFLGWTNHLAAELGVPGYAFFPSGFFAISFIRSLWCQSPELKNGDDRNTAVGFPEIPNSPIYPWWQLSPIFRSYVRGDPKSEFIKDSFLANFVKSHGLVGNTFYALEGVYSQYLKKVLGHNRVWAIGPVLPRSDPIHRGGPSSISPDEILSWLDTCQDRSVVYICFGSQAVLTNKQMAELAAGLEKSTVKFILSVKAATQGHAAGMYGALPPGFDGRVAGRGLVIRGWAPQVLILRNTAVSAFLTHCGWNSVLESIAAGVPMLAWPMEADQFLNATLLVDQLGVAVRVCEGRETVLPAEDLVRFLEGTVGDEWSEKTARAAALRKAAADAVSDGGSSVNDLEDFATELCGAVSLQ
Nature of the assay: UPLC / Q-TOF-MS conversion assay. The conditions noted are these: UDP-glucose 3200 µM, aglycone 320 µM; Tris-HCl pH 8.0, 40 °C, 6 h.

Assay [2] addresses T2, ApUFGT1 (Andrographis paniculata, UniProt A0A8E3MB50).
T2 construct: gene UGT2
T2 sequence (A0A8E3MB50 1-485): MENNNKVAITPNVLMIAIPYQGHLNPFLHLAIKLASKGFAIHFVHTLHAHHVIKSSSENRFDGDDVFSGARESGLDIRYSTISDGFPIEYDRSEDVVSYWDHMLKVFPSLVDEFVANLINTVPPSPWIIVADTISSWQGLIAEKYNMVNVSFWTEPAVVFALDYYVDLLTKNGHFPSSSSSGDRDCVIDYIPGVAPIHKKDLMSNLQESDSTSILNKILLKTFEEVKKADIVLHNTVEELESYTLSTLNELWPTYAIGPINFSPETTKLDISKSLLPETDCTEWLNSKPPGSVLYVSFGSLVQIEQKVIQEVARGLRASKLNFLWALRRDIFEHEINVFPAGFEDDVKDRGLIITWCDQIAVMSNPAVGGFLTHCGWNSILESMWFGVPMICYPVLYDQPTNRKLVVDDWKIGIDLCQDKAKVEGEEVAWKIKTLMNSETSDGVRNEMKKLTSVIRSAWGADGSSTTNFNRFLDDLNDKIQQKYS
Nature of the assay: UPLC / Q-TOF-MS conversion assay. The conditions noted are these: UDP-glucose 3200 µM, aglycone 320 µM; Tris-HCl pH 8.0, 40 °C, 6 h.

The target in assay [3] is T3, ApUFGT3 (Andrographis paniculata, UniProt A0A8E3S6A8).
T3 construct: gene UGT4
T3 sequence (A0A8E3S6A8 1-463): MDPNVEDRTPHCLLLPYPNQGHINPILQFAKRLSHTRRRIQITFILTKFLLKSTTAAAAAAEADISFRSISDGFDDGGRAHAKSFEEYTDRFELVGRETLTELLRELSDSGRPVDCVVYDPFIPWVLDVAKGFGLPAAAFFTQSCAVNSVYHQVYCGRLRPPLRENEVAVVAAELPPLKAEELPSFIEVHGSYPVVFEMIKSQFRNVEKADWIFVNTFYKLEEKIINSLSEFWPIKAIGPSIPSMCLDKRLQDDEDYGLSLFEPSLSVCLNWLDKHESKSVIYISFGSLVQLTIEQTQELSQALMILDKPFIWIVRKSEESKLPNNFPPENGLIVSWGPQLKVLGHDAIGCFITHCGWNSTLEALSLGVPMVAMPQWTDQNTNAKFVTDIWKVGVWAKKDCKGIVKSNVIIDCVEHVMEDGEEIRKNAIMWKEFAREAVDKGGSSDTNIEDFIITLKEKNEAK
The assay is described as follows: UPLC / Q-TOF-MS conversion assay. The note with it: UDP-glucose 3200 µM, aglycone 320 µM; Tris-HCl pH 8.0, 40 °C, 6 h.

Assay [4] deals with T1, ApUFGT2. Nature of the assay: UPLC conversion assay. The note with it: UDP-glucose donor; 50 mM Tris-HCl pH 8.0, 40 °C.
For assay [5], the target named is T3, ApUFGT3. Nature of the assay: UPLC conversion assay. The conditions noted are these: UDP-glucose donor; 50 mM Tris-HCl pH 8.0, 40 °C.
The target of assay [6] is T2, ApUFGT1. The assay is described as follows: UPLC conversion assay. The conditions noted are these: UDP-glucose donor; 50 mM Tris-HCl pH 8.0, 40 °C.

For the molecule `O=c1cc(-c2ccc(O)cc2)oc2cc(O)cc(O)c12` [compound 1, apigenin], the “UPLC / Q-TOF-MS conversion assay” value in assay [1] is listed as “Product peak 1c was confirmed as apigetrin, namely, apigenin 7-O-glucoside”; in assay [2] it was “Product peak 1c was confirmed as apigetrin, namely, apigenin 7-O-glucoside”; in assay [3], “Product peak 1c was confirmed as apigetrin, namely, apigenin 7-O-glucoside”.
In the case of `COc1c(O)cc(O)c2c(=O)cc(-c3ccccc3)oc12` [wogonin], the UPLC conversion assay entry in assay [4], in assay [5] and in assay [6] was “glycosylation of wogonin catalysed by ApUFGTs” each time.
